Results reported in patent publication EP2123641A1, “CRYSTAL, AMORPHOUS FORM AND SALT OF METHYL N-Ý3-(6,7-DIMETHOXY- 2-METHYLAMINOQUINAZOLIN-4-YL)PHENYL¨[…] ACID” (priority 2007, dated 2008).
Where two headings read alike, the source gives them in different places.

Legend:
Conditions in all cases: human, 2880 min
CYP1A1 = tested on: CYP1A1
Description: Cryopreserved human hepatocytes (XenoTeek) were rapidly thawed at 37°C, and viable cells were obtained using Hepatocytes Isolation Kit (Nosan Corporation). […] Then, the medium was replaced with Hepato-STIM (registered trade mark: BD Biosciences) (+EGF, PSG, -FBS), and the cells were further cultured at 37°C in 5% CO2 for 24 hours. […] The culture medium containing test compound, β-NF or Rif was replaced every 24 hours. […] The levels of mRNA for CYP1A1 and GAPDH were quantified using SYBR Green PCR Core Reagents Kit (Applied Biosystems), and those for CYP1A2 and that of CYP3A4 were measured using Taqman PCR Core Reagents Kit (Applied Biosystems) and ABI Prism 7900 Sequence Detection System (Applied Biosystems).

CYP3A4 = tested on: CYP3A4
Description: (§1) Cryopreserved human hepatocytes (XenoTeek) were rapidly thawed at 37°C, and viable cells were obtained using Hepatocytes Isolation Kit (Nosan Corporation). After cells prepared were diluted with ice cold William's Medium E (10% FBS, +PSG) to give a concentration of 5 x 10^5 viable cells/mL, the cells were seeded onto a 48-well collagen-coated plate (BD Biosciences) at a concentration of 1 x 10^5 cells/cm^2 and cultured at 37°C in 5% CO2 for 24 hours. Then, the medium was replaced with Hepato-STIM (registered trade mark: BD Biosciences) (+EGF, PSG, -FBS), and the cells were further cultured at 37°C in 5% CO2 for 24 hours. […] The culture medium containing test compound, β-NF or Rif was replaced every 24 hours. Test compound, β-NF and Rif were each dissolved in dimethyl sulfoxide (DMSO: Wako Pure Chemical Industries, Ltd.), and culture medium containing test compound (final concentrations; 1, 3 and 10µM), β-NF (final concentration; 10µM) or Rif (final concentration; 10µM) was prepared by adding them to Hepato-STIM(+EGF, PSG, -FBS), respectively. […] The levels of mRNA for CYP1A1 and GAPDH were quantified using SYBR Green PCR Core Reagents Kit (Applied Biosystems), and those for CYP1A2 and that of CYP3A4 were measured using Taqman PCR Core Reagents Kit (Applied Biosystems) and ABI Prism 7900 Sequence Detection System (Applied Biosystems).
(§2) The ability of a test compound to induce CYP1A1 was calculated as follows: Ability of a test compound to induce CYP1A1 (%) = {[(amount of mRNA of CYP1A1 in test compound treated cells)/(amount of mRNA of GAPDH in test compound treated cells)]/[(amount of mRNA of CYP1A1 in control cells)/(amount of mRNA of GAPDH in control cells)] - 1}/{[(amount of mRNA of CYP1A1 in positive control treated cells)/(amount of mRNA of GAPDH in positive control treated cells)]/[(amount of mRNA of CYP1A1 in control cells)/(amount of mRNA of GAPDH in control cells)] -1} x 100 The ability to induce CYP1A2 or CYP3A4 was calculated in the same manner described above.

CYP1A2 = tested on: CYP1A2
Description: as §1, §2

Row | SMILES | Induction Ability compared to positive control (%) CYP1A1 (CYP1A1; 10 uM) [%] | Induction Ability compared to positive control (%) CYP3A4 (CYP3A4; 1 uM) [%] | Induction Ability compared to positive control (%) CYP3A4 (CYP3A4; 3 uM) [%] | Induction Ability compared to positive control (%) CYP3A4 (CYP3A4; 10 uM) [%] | Induction Ability compared to positive control (%) CYP1A2 (CYP1A2; 1 uM) [%] | Induction Ability compared to positive control (%) CYP1A2 (CYP1A2; 3 uM) [%] | Induction Ability compared to positive control (%) CYP1A2 (CYP1A2; 10 uM) [%] | Induction Ability compared to positive control (%) CYP1A1 (CYP1A1; 1 uM) [%] | Induction Ability compared to positive control (%) CYP1A1 (CYP1A1; 3 uM) [%]
1 | O=c1cc(-c2ccccc2)oc2ccc3ccccc3c12 [β-naphthoflavone, reference compound] | 100.0 | – | – | – | – | – | – | – | –
2 | CNc1nc(-c2cccc(NC(=O)c3ccc(C(=O)OC)cc3)c2)c2cc(OC)c(OC)cc2n1 [Example 1, methyl N-[3-(6,7-dimethoxy-2-methylaminoquinazolin-4-yl)phenyl]terephthalamic acid] | 4.6 | -2.4 | -3.4 | -4.0 | -0.1 | -0.7 | 2.5 | 0.1 | 0.6
